The results in this text go back to patent publication US8703957B2 (Janssen Pharmaceutica NV, priority 2001, dated 2014).

Experiment [1] concerns the target T1, human neutrophil cathepsin G (Homo sapiens, UniProt P08311).
T1 construct: human neutrophil cathepsin G (Athens Research and Technology); purchased Athens Research and Technology; host or cells: human neutrophils (from the enzyme's name)
T1 sequence (P08311 21-243 limits assumed): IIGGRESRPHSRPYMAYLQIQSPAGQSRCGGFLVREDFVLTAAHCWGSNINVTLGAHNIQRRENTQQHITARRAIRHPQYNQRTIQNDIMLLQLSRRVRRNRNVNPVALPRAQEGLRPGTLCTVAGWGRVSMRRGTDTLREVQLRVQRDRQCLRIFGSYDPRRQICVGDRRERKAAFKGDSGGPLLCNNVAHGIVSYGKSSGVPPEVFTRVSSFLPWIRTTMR
In words: Enzyme-catalyzed hydrolysis assay, cathepsin G (chromogenic substrate Suc-Ala-Ala-Pro-Phe-pNa). The format is biochemical. Particulars: 70 nM enzyme, 5 mM substrate, pH 7.4, 37° C., 30 minutes; read-out: IC50 (μM) CatG. On the procedure: (§1) Enzyme-catalyzed hydrolysis rates were measured spectrophotometrically using human neutrophil cathepsin G (Athens Research and Technology) or human skin chymase (Cortex Biochem), a chromogenic substrate (Suc-Ala-Ala-Pro-Phe-pNa) (Bachem) in aqueous buffer (100 mM Hepes, 500 mM NaCl, pH 7.4 for catG; 450 mM Tris, 1800 mM NaCl, pH 8.0 for chymase), and a microplate reader (Molecular Devices). […] Percent inhibition was calculated by comparing the initial reaction slopes of the samples without inhibitor to those with inhibitor. IC50 values were determined using a four parameter fit logistics model. The term “NT” indicates a compound that was not tested.

For another experiment, the target named is T2, human skin chymase (Homo sapiens, UniProt P23946).
T2 construct: human skin chymase (Cortex Biochem); purchased Cortex Biochem; host or cells: human skin (from the enzyme's name)
T2 sequence (P23946 22-247): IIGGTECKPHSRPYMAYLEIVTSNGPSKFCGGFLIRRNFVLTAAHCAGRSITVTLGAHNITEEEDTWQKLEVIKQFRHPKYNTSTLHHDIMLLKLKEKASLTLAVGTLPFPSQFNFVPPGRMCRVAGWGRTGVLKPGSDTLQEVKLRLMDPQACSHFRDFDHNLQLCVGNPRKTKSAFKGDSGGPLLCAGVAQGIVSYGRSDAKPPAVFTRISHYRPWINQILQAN
In words: Enzyme-catalyzed hydrolysis assay, chymase (chromogenic substrate Suc-Ala-Ala-Pro-Phe-pNa). The format is biochemical. The note with it: 10 nM enzyme, 0.7 mM substrate, pH 8.0, 37° C., 30 minutes. On the procedure:
as §1

With `CN(C(=O)c1cc2ccccc2cc1C(=O)C(c1cccc2ccccc12)P(=O)(O)O)C1CCN(C(=O)/C=C/c2ccc(C(F)(F)F)cc2)CC1` (stereo not shown) [Compound 10, [2[3-[[methyl[1-[(2E)-1-oxo-3-[4-(trifluoromethyl)-phenyl]-2-propenyl]-4-piperidinyl]amino]carbonyl]-2-naphthalenyl]-1-(1-naphthalenyl)-2-oxoethyl]-phosphonic acid], the values for the IC50 (in experiment [1]; at human skin chymase) were 0.053 ± 0.016 µM and 0.014 ± 0.006 µM, respectively.

As to `CN(C(=O)c1cc2ccccc2cc1C(=O)C(c1ccccc1)P(=O)(O)O)C1CCN(C(=O)c2ccc3ccccc3c2)CC1` (stereo not shown) [Compound 11, [2-[3-[[methyl[1-(2-naphthalenylcarbonyl)-4-piperidinyl]amino]carbonyl]-2-naphthalenyl]-2-oxo-1-phenylethyl]-phosphonic acid], the IC50 in experiment [1] was 4.9 ± 2.8 µM; against human skin chymase it was 0.032 µM.

Turning to `COc1ccc(C2CCN(C(=O)c3cc4ccccc4cc3C(=O)C(c3cccc4ccccc34)P(=O)(O)O)CC2)cc1` (stereo not shown) [Compound 12, [2-[3-[[4-(4-methoxyphenyl)-1-piperidinyl]carbonyl]-2-naphthalenyl]-1-(1-naphthalenyl)-2-oxoethyl]-phosphonic acid], the IC50 amounted to 0.179 ± 0.038 µM in experiment [1] and 0.0073 ± 0.0017 µM against human skin chymase.

For `CN(C)c1ccc(C=CC(=O)N2CCC(N(C)C(=O)c3cc4ccccc4cc3C(=O)C(c3cccc4ccccc34)P(=O)(O)O)CC2)cc1` (stereo not shown) [Compound 13, [2-3-[[[1-[(2E)-3-[4-(dimethylamino)phenyl]-1-oxo-2-propenyl]-4-piperidinyl]methylamino]carbonyl]-2-naphthalenyl]-1-(1-naphthalenyl)-2-oxoethyl]-phosphonic acid], the IC50 is 0.064 ± 0.008 µM in experiment [1] and 0.004 µM at human skin chymase.

As to `COc1cccc(C2CCN(C(=O)c3cc4ccccc4cc3C(=O)C(c3cccc4ccccc34)P(=O)(O)O)CC2)c1` (stereo not shown) [Compound 14, [2-[3-[[4-(3-methoxyphenyl)-1-piperidinyl]carbonyl]-2-naphthalenyl]-1-(1-naphthalenyl)-2-oxoethyl]-phosphonic acid], the results for the IC50 (in experiment [1]; on human skin chymase) were 0.23 ± 0.03 µM and 0.01 ± 0.001 µM, respectively.

For the compound `O=C(c1cc2ccccc2cc1C(=O)N1CCC(c2nc3ccccc3s2)CC1)C(c1cccc2ccccc12)P(=O)(O)O` (stereo not shown) [Compound 16, [2-[3-[[4-(2-benzothiazolyl)-1-piperidinyl]carbonyl]-2-naphthalenyl]-1-(1-naphthalenyl)-2-oxoethyl]-phosphonic acid], the IC50 came to 0.19 ± 0.02 µM in experiment [1] and 0.0085 ± 0.0023 µM against human skin chymase.

For the compound `CN(C(=O)c1cc2ccccc2cc1C(=O)C(c1cccc2ccccc12)P(=O)(O)O)C1CCN(C(=O)CCc2ccc(C(F)(F)F)cc2)CC1` (stereo not shown) [Compound 18, [2-[3-[[methyl[1-[1-oxo-3-[4-(trifluoromethyl)phenyl]-propyl]-4-piperidinyl]amino]carbonyl]-2-naphthalenyl]-1-(1-naphthalenyl)-2-oxoethyl]-phosphonic acid], the IC50 came to 0.028 ± 0.006 µM in experiment [1] and 0.001 µM at human skin chymase.

In the case of `O=C(c1cc2ccccc2cc1C(=O)N1CCC(c2ccccc2)C1)C(c1cccc2ccccc12)P(=O)(O)O` (stereo not shown) [Compound 19, [1-(1-naphthalenyl)-2-oxo-2-[3-[(3-phenyl-1-pyrrolidinyl)carbonyl]-2-naphthalenyl]ethyl]-phosphonic acid], the IC50 turned out to be 0.238 ± 0.03 µM in experiment [1] and 0.022 ± 0.062 µM against human skin chymase.

Take `CC(C)C(=O)N1CCC(N(C)C(=O)c2cc3ccccc3cc2C(=O)C(c2cccc3ccccc23)P(=O)(O)O)CC1` (stereo not shown) [Compound 20, [2-[3-[[methyl[1-(2-methyl-1-oxopropyl)-4-piperidinyl]amino]carbonyl]-2-naphthalenyl]-1-(1-naphthalenyl)-2-oxoethyl]-phosphonic acid]: the 50% inhibitory concentration (IC50) was found to be 0.09 ± 0.023 µM in experiment [1] and 0.004 ± 0.002 µM against human skin chymase.

For the compound `COP(=O)(O)C(C(=O)c1cc2ccccc2cc1C(=O)N(C)C1CCN(C(=O)c2ccc3ccccc3c2)CC1)c1cccc2ccccc12` (stereo not shown) [Compound 23, [2[3-[[methyl[1-(2-naphthalenylcarbonyl)-4-piperidinyl]amino]carbonyl]-2-naphthalenyl]-1-(1-naphthalenyl)-2-oxoethyl]-phosphonic acid methyl ester], the IC50 in experiment [1] amounted to 0.67 µM; against human skin chymase, 0.416 µM.

For `O=C(c1cc2ccccc2cc1C(=O)N1CCC(CCc2ccccc2)C1)C(c1cccc2ccccc12)P(=O)(O)O` (stereo not shown) [Compound 25, [1-(1-naphthalenyl)-2-oxo-2-[3-[[3-(2-phenylethyl)-1-pyrrolidinyl]carbonyl]-2-naphthalenyl]ethyl]-phosphonic acid], the IC50 in experiment [1] was determined as 0.156 ± 0.028 µM; at human skin chymase it was 0.0097 ± 0.0035 µM.

As for `CC1CCC(N(C)C(=O)c2cc3ccccc3cc2C(=O)C(c2cccc3ccccc23)P(=O)(O)O)CC1` (stereo not shown) [Compound 27, [2-[3-[[methyl(4-methylcyclohexyl)amino]carbonyl]-2-naphthalenyl]-1-(1-naphthalenyl)-2-oxoethyl]-phosphonic acid], the IC50 in experiment [1] worked out at 0.07 ± 0.01 µM; on human skin chymase, 0.0051 ± 0.0022 µM.

Take `CN(CC12CC3CC(CC(C3)C1)C2)C(=O)c1cc2ccccc2cc1C(=O)C(c1cccc2ccccc12)P(=O)(O)O` (stereo not shown) [Compound 28, [2-[1-[[methyl(tricyclo[3.3.1^3,7]dec-1-ylmethyl)amino]carbonyl]-2-naphthalenyl]-1-(1-naphthalenyl)-2-oxoethyl]-phosphonic acid]: the results for the IC50 (in experiment [1]; against human skin chymase) were 0.4 ± 0.09 µM and 0.036 ± 0.011 µM, respectively.

For the compound `CN(C(=O)c1cc2ccccc2cc1C(=O)C(c1cccc2ccccc12)P(=O)(O)O)C1CC=C(c2ccccc2)CC1` (stereo not shown) [Compound 29, [2-[3-[[methyl(4-phenyl-3-cyclohexen-1-yl)amino]-carbonyl]-2-naphthalenyl]-1-(1-naphthalenyl)-2-oxoethyl]-phosphonic acid], the results for the IC50 (in experiment [1]; against human skin chymase) were 0.15 ± 0.03 µM and 0.0082 ± 0.0028 µM, respectively.

Regarding `O=C(NC1CCN(C(=O)c2ccc3ccccc3c2)CC1)c1cc2ccccc2cc1C(=O)C(c1cccc2ccccc12)P(=O)(O)O` (stereo not shown) [Compound 30, [1-(1-naphthalenyl)-2-[3-[[[1-(2-naphthalenylcarbonyl)-4-piperidinyl]amino]carbonyl]-2-naphthalenyl]-2-oxoethyl]-phosphonic acid], the IC50 in experiment [1] amounted to 0.59 ± 0.04 µM; on human skin chymase, 0.0158 ± 0.0008 µM.

`CN(C(=O)c1ccccc1C(=O)C(c1cccc2ccccc12)P(=O)(O)O)C1CCN(C(=O)c2ccc3ccccc3c2)CC1` (stereo not shown) [Compound 31, [2-[2-[[methyl[1-(2-naphthalenylcarbonyl)-4-piperidinyl]amino]carbonyl]phenyl]-1-(1-naphthalenyl)-2-oxoethyl]-phosphonic acid]: the results for the IC50 (in experiment [1]; at human skin chymase) were above 100 µM and 15 ± 0.67 µM, respectively.

With `CN(C(=O)c1cc2ccccc2cc1C(=O)C(c1cccc2ccccc12)P(C)(=O)O)C1CCN(C(=O)c2ccc3ccccc3c2)CC1` (stereo not shown) [Compound 32, methyl[2-[3-[[methyl[1-(2-naphthalenylcarbonyl)-4-piperidinyl]amino]carbonyl]-2-naphthalenyl]-1-(1-naphthalenyl)-2-oxoethyl]-phosphinic acid], the results for the IC50 (in experiment [1]; against human skin chymase) were 0.86 ± 0.03 µM and 0.31 µM, respectively.

As to `CN(C(=O)c1cc2ccccc2cc1C(=O)C(c1csc2ccc(Cl)cc12)P(=O)(O)O)C1CCN(C(=O)c2ccc3ccccc3c2)CC1` (stereo not shown) [Compound 33, [1-(5-chlorobenzo[b]thien-3-yl)-2-[3-[[methyl[1-(2-naphthalenylcarbonyl)-4-piperidinyl]amino]carbonyl]-2-naphthalenyl]-2-oxoethyl]-phosphonic acid], the IC50 was 0.121 ± 0.007 µM in experiment [1] and 0.001 µM at human skin chymase.

Consider `O=C(NC1CCN(C(=O)c2cc3ccccc3cc2C(=O)C(c2cccc3ccccc23)P(=O)(O)O)CC1)c1ccc2ccccc2c1` (stereo not shown) [Compound 34], for which the IC50 in experiment [1] came to 0.09 ± 0.04 µM; against human skin chymase, 0.007 ± 0.001 µM.

As for “[2-[3-[(cyclohexylmethylamino)carbonyl]-2-naphthalenyl]-1-(1-naphthalenyl)-2-oxoethyl]-phosphonic acid [Compound 17]”, the results for the 50% inhibitory concentration (IC50) (in experiment [1]; at human skin chymase) were 0.098 ± 0.026 µM and 0.0072 ± 0.0015 µM, respectively.

Turning to “[2-[3-[(cyclopentylmethylamino)carbonyl]-2-naphthalenyl]-1-(1-naphthalenyl)-2-oxoethyl]-phosphonic acid [Compound 21]”, the half-maximal inhibitory concentration (IC50) in experiment [1] was found to be 0.07 ± 0.02 µM; against human skin chymase, 0.0096 ± 0.0034 µM.

For the compound “[2-[3-[[(1-acetyl-4-piperidinyl)methylamino]carbonyl]-2-naphthalenyl]-1-(1-naphthalenyl)-2-oxoethyl]-phosphonic acid [Compound 26]”, the IC50 in experiment [1] stood at 0.096 ± 0.018 µM; at human skin chymase, 0.015 ± 0.001 µM.

Turning to “[2-[3-[[[1-[(2E)-3-(4-fluorophenyl)-1-oxo-2-propenyl]-3-pyrrolidinyl]methylamino]carbonyl]-2-naphthalenyl]-1-(1-naphthalenyl)-2-oxoethyl]-phosphonic acid [Compound 5]”, the IC50 was 0.072 ± 0.021 µM in experiment [1] and 0.2 ± 0.4 µM on human skin chymase.
